Experimental data taken from patent publication US20230181746A1, “BENZOYLHYDRAZIDE-DERIVED HDAC DEGRADERS AS THERAPEUTICS FOR TREATING CANCER AND OTHER HUMAN DISEASES” (University of Florida Research Foundation, Inc., priority 2020, published 2023).

Key:
[1] = target: T1, HDAC3 (in complex with the deacetylase activation domain of the human NCOR2 (amino acids 395-498)) (Homo sapiens, UniProt O15379); assay: In vitro HDAC activity assay (HDAC-Glo I/II), HDAC3; assay type: biochemical; settings: HDAC-Glo I/II; average of three independent assays ± standard deviation
T1 construct: purchased BPS Bioscience 50003
Experimental: (§1) Purified HDAC1, HDAC2, and HDAC3 (in complex with the deacetylase activation domain of the human NCOR2 (amino acids 395-498)) were obtained from Enzo Life Sciences (HDAC1, catalog # BML-SE456-0050) and BPS Bioscience (HDAC2, catalog #50002 and HDAC3, catalog #50003), respectively. The enzyme activities were tested using the HDAC-Glo I/II reagents (Promega) according to a protocol provided by the manufacturer.

HDAC2 = HDAC2 (Homo sapiens, UniProt Q92769); assay: In vitro HDAC activity assay (HDAC-Glo I/II), HDAC2; assay type: biochemical; design: purchased BPS Bioscience 50002; settings: average of three independent assays ± standard deviation
Experimental: as §1

HDAC1 = HDAC1 (Homo sapiens, UniProt Q13547); assay: In vitro HDAC activity assay (HDAC-Glo I/II), HDAC1; assay type: biochemical; design: purchased Enzo Life Sciences BML-SE456-0050; settings: average of three independent assays ± standard deviation
Experimental: as §1

HDAC3 = HDAC3 (Homo sapiens, UniProt O15379); assay: HDAC3 degradation in breast cancer cell lines, Western blot; assay type: cell-based; design: endogenous in cells; host or cells: MDA-MB-468, T47D, MCF7; settings: for DC50: T47D cells, read-out: DC50, HDAC3 degradation potency
Description: Data are presented as representative figures of two independent experiments.
Cells were lysed for WB with antibodies against the indicated proteins. Antibodies against acetylated histones at specific sites (H3K27 and H4K5) and acetyl-lysine were used to assess levels of histone acetylation.
Cells were lysed for WB. […] The indicated BC cell lines were exposed to DMSO, XZ9002, or XZ9002-NC at the indicated concentrations. Colonies were fixed and stained.
Cell lines were obtained from ATCC and subsequently authenticated. Cells were cultured with DMEM supplemented with 10% bovine calf serum, penicillin to 10 units/mL, and streptomycin to 10 μg/mL. For viability assays, 5,000 cells/well were seeded in 96-well plates. […] For colony formation assay, cells (˜1,000 cells/well) were seeded in a 24-well plate in quadruplicates. […] Medium was replaced with freshly prepared medium containing DMSO, XZ9002 or XZ9002-NC every five days until visible colonies appeared, typically in 15 to 20 days after initial cell seeding. Cells were fixed with 4% paraformaldehyde for 15 min and stained with 2% methylene blue in 20% ethanol for 30 min to 1 h. The cells were washed twice with distilled water and dried in air. For western blotting, cell cultures were exposed to compounds as indicated in relevant figures. Medium was removed from culture plate, and 1 x passive lysis buffer was then added, the plates were frozen at −80° C. overnight and thawed at room temperature. The total cell lysates were mixed with a one fifth volume of 6x SDS sample buffer, heated at 95° C. for 5 min and cooled on ice. The lysates were cleared by centrifugation and then subjected to SDS-PAGE and western blotting essentially as described.

HDAC2, sequence (Q92769 whole entry): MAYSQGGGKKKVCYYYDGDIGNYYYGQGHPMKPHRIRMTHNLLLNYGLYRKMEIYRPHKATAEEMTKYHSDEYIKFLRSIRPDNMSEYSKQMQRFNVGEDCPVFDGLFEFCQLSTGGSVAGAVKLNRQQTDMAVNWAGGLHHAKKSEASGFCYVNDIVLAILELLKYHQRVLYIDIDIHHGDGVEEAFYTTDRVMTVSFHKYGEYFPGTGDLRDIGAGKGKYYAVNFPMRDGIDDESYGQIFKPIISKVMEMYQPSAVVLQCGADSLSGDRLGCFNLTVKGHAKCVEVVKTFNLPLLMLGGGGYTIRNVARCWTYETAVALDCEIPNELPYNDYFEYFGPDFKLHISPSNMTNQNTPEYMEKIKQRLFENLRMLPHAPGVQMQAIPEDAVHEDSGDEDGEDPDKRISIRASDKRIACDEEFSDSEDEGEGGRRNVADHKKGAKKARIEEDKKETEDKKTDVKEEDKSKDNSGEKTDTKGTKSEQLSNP
T1 sequence (O15379 whole entry, the tested form may be a part): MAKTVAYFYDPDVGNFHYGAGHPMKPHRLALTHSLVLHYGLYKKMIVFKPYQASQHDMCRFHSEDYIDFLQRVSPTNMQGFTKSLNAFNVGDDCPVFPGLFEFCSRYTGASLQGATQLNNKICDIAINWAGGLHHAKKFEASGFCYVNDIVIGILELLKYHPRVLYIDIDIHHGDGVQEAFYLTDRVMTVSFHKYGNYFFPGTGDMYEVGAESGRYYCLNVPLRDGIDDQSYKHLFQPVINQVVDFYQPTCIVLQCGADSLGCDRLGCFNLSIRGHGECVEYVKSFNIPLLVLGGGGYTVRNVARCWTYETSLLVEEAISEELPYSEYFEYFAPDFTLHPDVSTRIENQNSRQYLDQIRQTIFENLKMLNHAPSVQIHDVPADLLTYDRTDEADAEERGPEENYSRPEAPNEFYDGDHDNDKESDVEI
T1 sequence (Q9Y618 395-498 partner limits assumed): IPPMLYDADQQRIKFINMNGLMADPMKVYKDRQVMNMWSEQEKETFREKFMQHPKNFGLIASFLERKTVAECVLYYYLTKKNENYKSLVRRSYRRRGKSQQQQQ
HDAC3, sequence (O15379 whole entry): as the sequence (O15379 whole entry, the tested form may be a part) above
HDAC3, sequence (Q9Y618 395-498 partner limits assumed): as the sequence (Q9Y618 395-498 partner limits assumed) above
HDAC1, sequence (Q13547 whole entry): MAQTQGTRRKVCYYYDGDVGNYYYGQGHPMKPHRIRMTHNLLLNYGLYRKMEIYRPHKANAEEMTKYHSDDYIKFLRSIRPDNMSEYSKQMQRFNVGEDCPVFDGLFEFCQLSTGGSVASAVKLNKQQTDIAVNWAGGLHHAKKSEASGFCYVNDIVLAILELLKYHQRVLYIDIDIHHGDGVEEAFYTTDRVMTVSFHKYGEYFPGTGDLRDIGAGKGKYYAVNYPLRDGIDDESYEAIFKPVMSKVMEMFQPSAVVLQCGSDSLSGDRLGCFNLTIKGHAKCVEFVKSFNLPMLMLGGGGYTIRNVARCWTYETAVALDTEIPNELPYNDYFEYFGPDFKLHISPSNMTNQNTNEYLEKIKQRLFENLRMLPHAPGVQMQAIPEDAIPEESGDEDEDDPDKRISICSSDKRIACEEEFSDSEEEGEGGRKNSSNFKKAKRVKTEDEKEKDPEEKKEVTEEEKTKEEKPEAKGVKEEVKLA

## CCCNNC(=O)c1ccc(-c2ccc(NC(=O)COCCOCCNc3cccc4c3C(=O)N(C3CCC(=O)NC3=O)C4=O)cc2)cc1 (stereo not drawn) [Compound 7a]
[1]
  IC50: 43 ± 18 nM
HDAC2
  IC50: 410 ± 14 nM
HDAC1
  IC50: 82 ± 25 nM

## CCCNNC(=O)c1ccc(-c2ccc(NC(=O)COCCOCCOCCNc3cccc4c3C(=O)N(C3CCC(=O)NC3=O)C4=O)cc2)cc1 (stereo not drawn) [Compound 7b, 2-(2-(2-(2-((2-(2,6-dioxopiperidin-3-yl)-1,3-dioxoisoindolin-4-yl)amino)ethoxy)ethoxy)ethoxy)-N-(4′-(20propylhydrazine-1-carbonyl)[1,1′-biphenyl]-4-yl)acetamide]
[1]
  IC50: 38 ± 23 nM
HDAC2
  IC50: 400 ± 30 nM
HDAC1
  IC50: 90 ± 14 nM

## CCCNNC(=O)c1ccc(-c2ccc(NC(=O)COCCOCCOCCOCCNc3cccc4c3C(=O)N(C3CCC(=O)NC3=O)C4=O)cc2)cc1 (stereo not drawn) [Compound 7c, 14-((2-(2,6-dioxopiperidin-3-yl)-1,3-dioxoisoindolin-4-yl)amino)-N-(4′-(2-propylhydrazine-1-carbonyl)-[1,1′-biphenyl]-4-yl)-3,6,9,12-tetraoxatetradecanamide]
[1]
  IC50: 72 ± 15 nM
HDAC2
  IC50: 450 ± 70 nM
HDAC1
  IC50: 125 ± 35 nM
HDAC3; PROTACs derived from CRBN, breast cancer cell lines
  concentration at which HDAC3 is degraded: 1.0 µM

## CCCNNC(=O)c1ccc(-c2ccc(NC(=O)CCC(=O)N[C@H](C(=O)N3C[C@H](O)C[C@H]3C(=O)N[C@@H](C)c3ccc(-c4scnc4C)cc3)C(C)(C)C)cc2)cc1 [Compound 8a, N^1—((S)-1-((2S,4R)-4-hydroxy-2-(((S)-1-(4-(4-methylthiazol-5-yl)phenyl)ethyl)carbamoyl)pyrrolidine-1-yl)-3,3-dimethyl-1-oxobutan-2-yl)-N^4-(4′-(2-propylhydrazine-1-carbonyl)-[1,1′-biphenyl]-4-yl)succinimide]
[1]
  IC50: 140 ± 40 nM
HDAC2
  IC50: 1400 ± 140 nM
HDAC1
  IC50: 300 ± 70 nM

## CCCNNC(=O)c1ccc(-c2ccc(NC(=O)CCCCCCCCC(=O)N[C@H](C(=O)N3C[C@H](O)C[C@H]3C(=O)N[C@@H](C)c3ccc(-c4scnc4C)cc3)C(C)(C)C)cc2)cc1 [Compound 8d, N^1—((S)-1-((2S,4R)-4-Hydroxy-2-(((S)-1-(4-(4-methylthiazol-5-yl)phenyl)ethyl)carbamoyl)pyrrolidin-1-yl)-3,3-dimethyl-1-oxobutan-2-yl)-N^10-(4′-(2-propylhydrazine-1-carbonyl)-[1,1′-biphenyl]-4-yl)decanediamide]
[1]
  IC50: 550 ± 70 nM
HDAC2
  IC50: 1420 ± 250 nM
HDAC1
  IC50: 1500 ± 140 nM

## CCCNNC(=O)c1ccc(N2CCN(C(=O)CCCCC(=O)N[C@H](C(=O)N3C[C@H](O)C[C@H]3C(=O)N[C@@H](C)c3ccc(-c4scnc4C)cc3)C(C)(C)C)CC2)cc1 [Compound 27a, (2S,4R)-1-((S)-3,3-dimethyl-2-(6-oxo-6-(4-(4-(2-propylhydrazine-1-carbonyl)phenyl)piperazin-1-yl)hexanamido)butanoyl)-4-hydroxy-N—((S)-1-(4-(4-methylthiazol-5-yl)phenyl)ethyl)pyrrolidine-2-carboxamide]
HDAC3
  DC50: < 1000 nM

## CCCNNC(=O)c1ccc(N2CCN(C(=O)CCCCCCC(=O)N[C@H](C(=O)N3C[C@H](O)C[C@H]3C(=O)N[C@@H](C)c3ccc(-c4scnc4C)cc3)C(C)(C)C)CC2)cc1 [Compound 27b, (2S,4R)-1-((S)-3,3-dimethyl-2-(8-oxo-8-(4-(4-(2-propylhydrazine-1-carbonyl)phenyl)piperazin-1-yl)octanamido)butanoyl)-4-hydroxy-N—((S)-1-(4-(4-methylthiazol-5-yl)phenyl)ethyl)pyrrolidine-2-carboxamide]
HDAC3
  DC50: < 100 nM

## CCCNNC(=O)c1ccc(N2CCN(C(=O)CCCCCCCCC(=O)N[C@H](C(=O)N3C[C@H](O)C[C@H]3C(=O)N[C@@H](C)c3ccc(-c4scnc4C)cc3)C(C)(C)C)CC2)cc1 [Compound 27c, (2S,4R)-1-((S)-3,3-dimethyl-2-(10-oxo-10-(4-(4-(2-propylhydrazine-1-carbonyl)phenyl)piperazin-1-yl)decanamido)butanoyl)-4-hydroxy-N—((S)-1-(4-(4-methylthiazol-5-yl)phenyl)ethyl)pyrrolidine-2-carboxamide]
HDAC3
  DC50: < 100 nM

## CCCNNC(=O)c1ccc(N2CCN(CCCCCC(=O)N[C@H](C(=O)N3C[C@H](O)C[C@H]3C(=O)N[C@@H](C)c3ccc(-c4scnc4C)cc3)C(C)(C)C)CC2)cc1 [Compound 28a, (2S,4R)-1-((S)-3,3-dimethyl-2-(6-(4-(4-(2-propylhydrazine-1-carbonyl)phenyl)piperazin-1-yl)hexanamido)butanoyl)-4-hydroxy-N—((S)-1-(4-(4-methylthiazol-5-yl)phenyl)ethyl)pyrrolidine-2-carboxamide]
HDAC3
  DC50: < 100 nM

## CCCNNC(=O)c1ccc(N2CCN(CCCCCCC(=O)N[C@H](C(=O)N3C[C@H](O)C[C@H]3C(=O)N[C@@H](C)c3ccc(-c4scnc4C)cc3)C(C)(C)C)CC2)cc1 [Compound 28b, (2S,4R)-1-((S)-3,3-dimethyl-2-(7-(4-(4-(2-propylhydrazine-1-carbonyl)phenyl)piperazin-1-yl)heptanamido)butanoyl)-4-hydroxy-N—((S)-1-(4-(4-methylthiazol-5-yl)phenyl)ethyl)pyrrolidine-2-carboxamide]
HDAC3
  DC50: < 100 nM

## CCCNNC(=O)c1ccc(N2CCN(CCCCCCCCC(=O)N[C@H](C(=O)N3C[C@H](O)C[C@H]3C(=O)N[C@@H](C)c3ccc(-c4scnc4C)cc3)C(C)(C)C)CC2)cc1 [Compound 28d, (2S,4R)-1-((S)-3,3-dimethyl-2-(9-(4-(4-(2-propylhydrazine-1-carbonyl)phenyl)piperazin-1-yl)nonanamido)butanoyl)-4-hydroxy-N—((S)-1-(4-(4-methylthiazol-5-yl)phenyl)ethyl)pyrrolidine-2-carboxamide]
HDAC3
  DC50: < 100 nM

## CCCNNC(=O)c1ccc(N2CCN(CCCCCCCCCC(=O)N[C@H](C(=O)N3C[C@H](O)C[C@H]3C(=O)N[C@@H](C)c3ccc(-c4scnc4C)cc3)C(C)(C)C)CC2)cc1 [Compound 28e, (2S,4R)-1-((S)-3,3-dimethyl-2-(10-(4-(4-(2-propylhydrazine-1-carbonyl)phenyl)piperazin-1-yl)decanamido)butanoyl)-4-hydroxy-N—((S)-1-(4-(4-methylthiazol-5-yl)phenyl)ethyl)pyrrolidine-2-carboxamide]
HDAC3
  DC50: < 1000 nM

## CCCNNC(=O)c1ccc(-c2ccc(NC(=O)CCCCCCC(=O)N[C@H](C(=O)N3C[C@@H](O)C[C@@H]3C(=O)N[C@@H](C)c3ccc(-c4scnc4C)cc3)C(C)(C)C)cc2)cc1 [XZ9002-NC, N^1—((S)-1-((2R,4S)-4-Hydroxy-2-(((S)-1-(4-(4-methylthiazol-5-yl)phenyl)ethyl)carbamoyl)pyrrolidin-1-yl)-3,3-dimethyl-1-oxobutan-2-yl)-N^5-(4′-(2-propylhydrazine-1-carbonyl)-[1,1′-biphenyl]-4-yl)octanediamide]
HDAC3; MDA-MB-468 cells (FIG. 3B)
  HDAC3 degradation (in words): did not induce HDAC3 degradation
